Reference: US7407940B2, “Antimicrobial hexapeptides” (Helix BioMedix Inc., priority 2005, dated 2008)
Read-outs that look alike come from different tables or passages of the source. Where a SMILES comes first, the peptide text is derived from it. Where no end group is shown, it is not given here. [ ]: non-standard residue; d: D form. The star is where a group is joined. 2Nal = N[C@@H](Cc1ccc2ccccc2c1)C(=O)O; Lauroyl = CCCCCCCCCCCC(=O)*; code J = not defined here; Octanoyl = CCCCCCCC(=O)*

Columns and labels:
[1] = system: MRSA; test: Kill curve in 10% sheep serum-phosphate buffer against MRSA; type: cell-based, S. aureus; set-up: MRSA count in kill curve: unit not given here
[2] = system: Salmonella typhimurium 14028S; test: MIC, broth microdilution, S. typhimurium; type: cell-based; set-up: unit not given here; conditions: S.typhimurium
Experimental: (§1) MICs (minimal inhibitory concentrations) were determined for the hexapeptides of interest using a slightly modified version of the NCCLS (National Committee for Clinical Laboratory Standards) broth microdilution method as described previously (Steinberg et al., AAC 41: 1738, 1997). Briefly, antimicrobial agents were prepared as 10× concentrates in the most appropriate solvent. For the hexapeptide, 0.01% acetic acid containing 0.2% bovine serum albumin as a carrier protein was used. Inocula were prepared by resuspending colonies from a BAP (please spell out this term) in medium and adjusting the suspension to match that of a 0.5 McFarland standard. The suspension was diluted into fresh medium (as recommended by NCCLS for the organism) to give 2×10^5 to 7×10^5 CFU/ml for bacteria or 2×10^3 to 7×10^3 CFU/ml for Candida. After dispensing 100 μl aliquots of the microbial suspension into each well of a 96-well polypropylene microtiter plate, 11 μl of test compound was added. The MIC was defined as the lowest concentration of drug which prevented visible turbidity after 16 to 20 hours (bacteria) or 46 to 50 hours (Candida) at 35° C.

[3] = system: S. epidermidis ATCC12228; test: MIC, broth microdilution, S. epidermidis; type: cell-based; set-up: unit not given beside the values; conditions: #86: S. epidermidis ATCC12228
Experimental: as §1

[4] = system: P. aeruginosa; type: cell-based; conditions: combined with polymyxin B
Experimental: (§2) The fractional inhibitory concentration (FIC) index was used to determine the synergy between antimicrobial agents. Peptide MICs against test microorganisms were determined three times on separate occasions. […]

[5] = system: P. acnes; test: Activity against extended panel of P. acnes; type: cell-based; set-up: unit not given here
Text: A very promising application for short bioactive peptides is for dermatological indications such as acne.

[6] = system: azole resistant strains of C. albicans; type: cell-based; set-up: MIC-SEQ ID NO: 55 + azole, peptide part / MIC-SEQ ID NO: 55 + azole, azole part: unit not given beside the values; conditions: in combination with clotrimazole
Experimental: as §2
All strains are azole resistant clinical isolates from Prof. Ted White (Seattle Biotechnology Research Institute, Seattle)

[7] = system: Pseudomonas aeruginosa; type: cell-based; set-up: MIC, lipid length SAR: unit not given here; conditions: P.aeruginosa
Experimental: as §1

[8] = system: S. aureus MRSA; test: Kill kinetics in lipid (liposome) environment with or without serum; type: cell-based; conditions: peptide 0.5 mg/ml; liposomes, presence or absence of serum
Text: Referring to FIG. 8, not only does lipidation improve the activity of hexapeptides in serum it improves activity in a lipid environment which is a mimic of the human acne lesion environment. The human sebaceous gland secretion, also called sebum, contains squalene, cholesterol, cholesterol esters, wax esters, and triglycerides in which a large […] of P. acnes appears to take advantage of this environment and hydrolyzes certain sebaceous lipids. The pre-pubertal and pubertal increase in sebum secretion is almost certainly involved in the pathogenesis of adolescent acne. The activity of SEQ ID NO: 55 was studied in this environment compared to P64(SEQ ID NO:90), a traditional cationic antimicrobial peptide. Due to the fact that most lipids are water insoluble, peptide-liposomes composed of phosphatidylcholine, phosphatidylglycerol and cholesterol in the molar ratio of 7:2:1 in saline were used and kill kinetics of the peptides were assessed in the presence or absence of serum.

[9] = set-up: species or system Sprague-Dawley rats; conditions: rat, in vivo
Text: Each wound observed at each dressing change and the wound surface and tissue reaction assessed. There were 5 parameters of wound status that were checked: • i. Wound Film Security—Was the adhesive film used to cover the wound still completely adherent to the skin around the wound? • ii. Wound Surface—What was the exact visual appearance of the wound surface? • iii. Amount of Exudate—How much exudate was trapped under the film? In many cases, accumulated exudate causes the film to lose adherence and the exudates will escape. • iv. Severity of Tissue Reaction—A subjective rating of extent of tissue reaction on a scale of 1 (minimal), 2 (moderate), 3 (extensive). • v. % of Tissue Involved—In some situations, the wound surface contained denatures, friable tissue that could be wiped off with pressure applied to gauze. This test was used to better differentiate denatured tissue from viscous exudates.

[10] = system: Trychophyton rubrum; test: MIC100 against dermatophyte Trychophyton rubrum; type: cell-based; conditions: T. rubrum; at 10 days
Experimental: (§3) In order to compare the activity of various antimicrobial peptides, including hexapeptide SEQ ID NO:1 (P0666), MIC were determined against the dermatophytes Trychophyton rubrum and Trychophyton mentagrophytes. The concentration of samples investigated were: 2000, 1000, 500, 250 and 125 μg/ml, respectively. The medium used was modified Sabouraud's media without agar. For a 100 mL of modified Sabouraud medium: 3 g of Sabouraud's dextrose broth (Difco) was mixed into 100 mL of deionized water. The pH was adjusted to 7.0 with 0.1 N NaOH. The solution was autoclaved for thirty minutes. 940 μL of medium was poured into sterile 20 mL test tubes with plastic caps and was allowed to cool.
(§4) 50 μL of […] was added to each 20 mL test tube to make the required concentration. A control tube was composed of 50 μL of saline without sample. For the MIC experiments,
(§5) 10 μL of organism suspended in saline was added to the each 20 mL test tube and vortexed slightly. Each of the test tubes was covered in parafilm and maintained on a shaker at 27° C. at a speed of approximately 100 rpm.
(§6) The growth/inhibition of the organism was observed on a daily basis. […] The Minimum Inhibition Concentration (MIC100) for compounds F1 to F10 against fungus Trychophyton rubrum and Trychophyton mentagrophytes at 10 days.

[11] = system: Trychophyton mentagrophytes; test: MIC100 against dermatophyte Trychophyton mentagrophytes; type: cell-based; conditions: T. mentagrophytes; at 10 days
Experimental: as §3, §4, §5, §6

[12] = system: S. aureus; test: Kill curve in 80% serum, S. aureus; type: cell-based
Text: It should be noted that in addition to MIC data, the lipo-hexapeptides can also be distinguished by their ability to kill bacteria in the presence of biological constituents such as serum. […] This activity, an indicator of therapeutic potential, is not obvious from the MIC data alone.

[13] = system: Lipoteichoic acid (LTA); test: LTA binding assay; conditions: FIG. 7
Text: Lipoteichoic acid (LTA) is a common cell wall component of gram-positive bacteria including organisms such as S. aureus and P. acnes. The release of LTA during infection can lead to the release of mediators of the host inflammatory response which in turn can result in sepsis (septic shock). For example, when injected into animals, LTA can elicit many of the characteristic features of septic shock, including cytokine production, leukocytopenia, circulatory failure, multiple-organ dysfunction syndrome, and mortality.

CCCCCCCC(=O)N[C@@H](CCCCN)C(=O)N[C@@H](Cc1ccccc1)C(=O)N[C@@H](CCCCN)C(=O)N[C@@H](Cc1c[nH]c2ccccc12)C(=O)N1CCC[C@H]1C(=O)N[C@@H](Cc1c[nH]c2ccccc12)C(N)=O [SEQ ID NO: 55, OCT-KFKWPW-NH2] (Octanoyl-KFKWPW-NH2)
MRSA count in kill curve ([1]; buffer, 1 mg/ml, 30 min): 100
MRSA count in kill curve ([1]; buffer, 1 mg/ml, 1 hour): 100
MRSA count in kill curve ([1]; buffer, 1 mg/ml, 2 hours): 10
MRSA count in kill curve ([1]; buffer, 1 mg/ml, 3 hours): 10
MRSA count in kill curve ([1]; buffer, 1 mg/ml, 4 hours): 10
MRSA count in kill curve ([1]; buffer, 1 mg/ml, 5 hours): 10
MRSA count in kill curve ([1]; serum, 0.5 mg/ml, 30 min): 10
MRSA count in kill curve ([1]; serum, 0.5 mg/ml, 1 hour): 10
MRSA count in kill curve ([1]; serum, 0.5 mg/ml, 2 hours): 10
MRSA count in kill curve ([1]; serum, 0.5 mg/ml, 3 hours): 10
MRSA count in kill curve ([1]; serum, 0.5 mg/ml, 4 hours): 10
MRSA count in kill curve ([1]; serum, 0.5 mg/ml, 5 hours): 10
MRSA count in kill curve ([1]; serum, 1 mg/ml, 30 min): 3900
MRSA count in kill curve ([1]; serum, 1 mg/ml, 1 hour): 1100
MRSA count in kill curve ([1]; serum, 1 mg/ml, 2 hours): 100
MRSA count in kill curve ([1]; serum, 1 mg/ml, 3 hours): 30
MRSA count in kill curve ([1]; serum, 1 mg/ml, 4 hours): 20
MRSA count in kill curve ([1]; serum, 1 mg/ml, 5 hours): 60
MRSA count in kill curve ([1]; serum, 2 mg/ml, 30 min): 1000000
MRSA count in kill curve ([1]; serum, 2 mg/ml, 1 hour): 1000000
MRSA count in kill curve ([1]; serum, 2 mg/ml, 2 hours): 1000000
MRSA count in kill curve ([1]; serum, 2 mg/ml, 3 hours): 1000000
MRSA count in kill curve ([1]; serum, 2 mg/ml, 4 hours): 1000000
MRSA count in kill curve ([1]; serum, 2 mg/ml, 5 hours): 1000000
MIC, lipid length SAR [2]: 32
MIC [3]: 8
MIC-NO: 55 combined ([4]; P. aeruginosa 100609): 2 µg/mL
MIC-NO: 55 combined ([4]; P. aeruginosa H187): 8 µg/mL
MIC-NO: 55 combined ([4]; P. aeruginosa H401): 2 µg/mL
MIC-NO: 55 combined ([4]; P. aeruginosa M917): 16 µg/mL
Activity (MIC) against P. acnes ([5]; ATCC 6921): 4
Activity (MIC) against P. acnes ([5]; ATCC 6922): 8
Activity (MIC) against P. acnes ([5]; ATCC 6923): 8
Activity (MIC) against P. acnes ([5]; ATCC 11828): 8
Activity (MIC) against P. acnes ([5]; ATCC 12930): 8
Activity (MIC) against P. acnes ([5]; ATCC 25746): 1
Activity (MIC) against P. acnes ([5]; ATCC 29399): 16
Activity (MIC) against P. acnes ([5]; ATCC 33179): 16
Activity (MIC) against P. acnes ([5]; ATCC 49929): 0.125
Activity (MIC) against P. acnes ([5]; ATCC 51277): 4
MIC-SEQ ID NO: 55 + azole, peptide part ([6]; C. albicans #185): 16
MIC-SEQ ID NO: 55 + azole, peptide part ([6]; C. albicans #186): 2
MIC-SEQ ID NO: 55 + azole, peptide part ([6]; C. albicans #187): 4
MIC-SEQ ID NO: 55 + azole, peptide part ([6]; C. albicans #192): 4
MIC-SEQ ID NO: 55 + azole, peptide part ([6]; C. albicans #196): 4
MIC-SEQ ID NO: 55 + azole, peptide part ([6]; C. albicans #199): 4
MIC, lipid length SAR [7]: 32
kill kinetics in lipid environment (in words) [8]: shown to be effective

CC(C)C[C@H](NC(=O)[C@H](C)NC(=O)[C@H](CC(C)C)NC(=O)[C@H](CCCCN)NC(=O)[C@H](C)NC(=O)[C@H](CC(C)C)NC(=O)[C@H](CCCCN)NC(=O)[C@H](CCCCN)NC(=O)[C@H](C)NC(=O)[C@H](CC(C)C)NC(=O)[C@H](CCCCN)NC(=O)[C@H](C)NC(=O)[C@H](CC(C)C)NC(=O)[C@H](CCCCN)NC(=O)[C@H](CCCCN)NC(=O)[C@H](C)NC(=O)[C@@H](N)C(C)C)C(N)=O [SEQ ID NO: 88, VAKKLAKLAKKLAKLAL-NH2]
Amount of exudate [9]: S/y
tissue reaction (in words) [9]: mild to moderate

FAKALKALLKALKAL-NH2 [SEQ ID NO: 90]
MIC100 [10]: 1000 µg/mL
MIC100 [11]: 500 µg/mL
kill kinetics in lipid environment (in words) [8]: shown to be effective

KWKWJW-NH2 (KWKW[code J]W-NH2; reading uncertain; also: printed as KWKWJW-NH2) [SEQ ID NO: 60]
MIC [3]: >128

KWKWZW-NH2 (KWKW[2Nal]W-NH2) [SEQ ID NO: 63]
MIC [3]: 2

Lau-kfkwpw-NH2 (Lauroyl-[dK][dF][dK][dW][dP][dW]-NH2; SMILES CCCCCCCCCCCC(=O)N[C@H](CCCCN)C(=O)N[C@H](Cc1ccccc1)C(=O)N[C@H](CCCCN)C(=O)N[C@H](Cc1c[nH]c2ccccc12)C(=O)N1CCC[C@@H]1C(=O)N[C@H](Cc1c[nH]c2ccccc12)C(N)=O) [SEQ ID NO: 83]
killing of S. aureus in 80% serum (in words) [12]: perform very well

OCT-KWKWFW-NH2 (Octanoyl-KWKWFW-NH2; SMILES CCCCCCCC(=O)N[C@@H](CCCCN)C(=O)N[C@@H](Cc1c[nH]c2ccccc12)C(=O)N[C@@H](CCCCN)C(=O)N[C@@H](Cc1c[nH]c2ccccc12)C(=O)N[C@@H](Cc1ccccc1)C(=O)N[C@@H](Cc1c[nH]c2ccccc12)C(N)=O) [SEQ ID NO: 56]
MIC [3]: 4

SEQ ID NO:72 (Lauroyl-KFKWPW-NH2; SMILES CCCCCCCCCCCC(=O)N[C@@H](CCCCN)C(=O)N[C@@H](Cc1ccccc1)C(=O)N[C@@H](CCCCN)C(=O)N[C@@H](Cc1c[nH]c2ccccc12)C(=O)N1CCC[C@H]1C(=O)N[C@@H](Cc1c[nH]c2ccccc12)C(N)=O)
LTA binding (in words) [13]: binds LTA to the same degree as a typical highly charged alpha-helical amphipathic peptide

SEQ ID NO:83 (Lauroyl-[dK][dF][dK][dW][dP][dW]-NH2; SMILES CCCCCCCCCCCC(=O)N[C@H](CCCCN)C(=O)N[C@H](Cc1ccccc1)C(=O)N[C@H](CCCCN)C(=O)N[C@H](Cc1c[nH]c2ccccc12)C(=O)N1CCC[C@@H]1C(=O)N[C@H](Cc1c[nH]c2ccccc12)C(N)=O)
LTA binding (in words) [13]: fail to bind LTA
